This passage reports IC50 results from patent US5861396A, “Purin-6-one derivatives” (Bayer Aktiengesellschaft, priority 1995, dated 1999).

The structures appear in SMILES notation. pIC50: −log10 of the molar value.

For assay [1], the system named is PDE I (Ca^2+ calmodulin-stimulable). As to the kind of experiment: Inhibition of the phosphodiesterases in vitro: PDE I. The class given is biochemical, porcine aorta, porcine brain or preferably bovine aorta. The conditions noted are these: CaCl2 1 μM and calmodulin 0.1 μM added; nucleotide 10^-6 mol/l; pH 7.5; 30 min. Here is the method: (§1) The c-GMP-stimulable PDE II, the c-GMP-inhibitable PDE III and the cAMP-specific PDE IV were isolated either from porcine or bovine myocardium. The Ca^2+ calmodulin-stimulable PDE I was isolated from porcine aorta, porcine brain or preferably from bovine aorta The c-GMP-specific PDE V was obtained from porcine small intestine, porcine aorta, human blood platelets and preferably from bovine aorta. Purification was carried out by anion exchange chromatography on Mono® Pharmacia essentially according to the method of M. Hoey and Miles D. Houslay, Biochemical Pharmacology, Vol. 40, 193-202 (1990) and C. Lugman et al., Biochemical Pharmacology Vol. 35, 1743-1751 (1986).
(§2) The enzyme activity was determined in a test mixture of 100 μl in 20 mM tris/HCl buffer ph 7.5 which contains 5 MM MgCl2, 0.1 mg/ml of bovine serum albumin and either 800 Bq of ^3 HcAMP or ^3 HcGMP. The final concentration of the corresponding nucleotides is 10^-6 mol/l. The reaction is started by addition of the enzyme; the amount of enzyme is proportioned such that during the incubation time of 30 min about 50% of the substrate is reacted. In order to test the cGMP-stimulable PDE II, ^3 HcAMP is used as a substrate and 10^-6 mol/l of unlabelled cGMP is added to the mixture. In order to test the Ca calmodulin-dependent PDE I, additionally CaCl2, 1 μM and calmodulin, 0.1 μM are added to the reaction mixture. The reaction is stopped by addition of 100 μl of acetonitrile which contains 1 mM cAMP and 1 mM AMP. 100 μl of the reaction mixture are separated on an HPLC and the cleavage products are quantitatively determined "on-line" using a flow scintillation counter. The substance concentration is measured at which the reaction rate is decreased by 50%. Additionally, the "phosphodiesterase [3H] cAMP-SPA enzyme assay" and the "phosphodiesterase [^3 H] cGMP-SPA enzyme assay" from Amersham Life Science were used for testing. The test was carried out according to the experimental protocol indicated by the manufacturer. For activity determination of the PDE2, the [^3 H] cAMP SPA assay was used, 10^-6 M cGMP being added to the reaction mixture to activate the enzyme. For the measurement of PDE1, calmodulin, 10^-7 M and CaCl2, 1 μM were added to the reaction mixture. The PDE5 was measured using the [^3 H] cGMP SPA assay.

Assay [2] deals with PDE II (c-GMP-stimulable). Kind of assay: Inhibition of the phosphodiesterases in vitro: PDE II. The class given is biochemical, porcine or bovine (myocardium). To be noted: ^3H cAMP substrate, 10^-6 mol/l unlabelled cGMP added; pH 7.5; 30 min. Here is the method:
as §1, §2

A further assay has as its system PDE V (c-GMP-specific). As to the kind of experiment: Inhibition of the phosphodiesterases in vitro: PDE V. It counts as biochemical. The conditions noted are these: nucleotide 10^-6 mol/l, pH 7.5, 30 min; or [^3H] cGMP SPA assay. Here is the method:
as §1, §2

The pIC50 is the negative decadic logarithm of the IC50, by convention in mol/L. A high value points to a low IC50. `CC(O)C(CCCc1ccccc1)n1cnc2c(=O)[nH]c(Cc3ccc(Cl)c(Cl)c3)nc21` (stereo not drawn) [Example 34]: the pIC50 in assay [1] is about 6.30; in assay [2], 7.70; with PDE V (c-GMP-specific), 6.30.

For `CC(CCCc1ccccc1)n1cnc2c(=O)[nH]c(Cc3ccccc3)nc21` (stereo not drawn) [Example 1], the figures for the negative logarithm of the IC50 (pIC50) (in assay [1]; in assay [2]; in the assay with PDE V (c-GMP-specific)) were 6.30, 6.70 and 6.52, respectively.

Take `CC(O)C(CCCc1ccccc1)n1cnc2c(=O)[nH]c(Cc3ccccc3)nc21` (stereo not drawn) [Example 33]: the negative-log IC50 (pIC50) in assay [1] is 5.52; in assay [2], 7.00; in the assay on PDE V (c-GMP-specific), 6.10.

For `CC(CCCc1ccccc1)n1cnc2c(=O)[nH]c(Cc3ccc(-c4cccc(N)c4)cc3)nc21` (stereo not drawn) [Example 82], the pIC50 in assay [1] is 7.00; in assay [2], 7.70; in the assay on PDE V (c-GMP-specific), 6.30.

Consider `COc1ccc(Cc2nc3c(ncn3C(CCCc3ccccc3)C(C)O)c(=O)[nH]2)cc1S(=O)(=O)N1CCC(C(=O)O)CC1` (stereo not drawn) [Example 138], for which the pIC50 is 6.30 in assay [1], 9.00 in assay [2] and 6.30 with PDE V (c-GMP-specific).

In the case of `CC(CCCc1ccccc1)n1cnc2c(=O)[nH]c(Cc3ccc(-c4ccc(F)cc4)cc3)nc21` (stereo not drawn) [Example 80], the pIC50 in assay [1] is 7.00; in assay [2], 7.10; in the assay with PDE V (c-GMP-specific), 6.00.

In the case of `CC(O)C(CCCc1ccccc1)n1cnc2c(=O)[nH]c(Cc3ccc(F)cc3)nc21` (stereo not drawn) [Example 69], the values for the pIC50 (in assay [1]; in assay [2]; in the assay on PDE V (c-GMP-specific)) were 5.52, 7.22 and 6.30, respectively.

For `CC(CCCc1ccccc1)n1cnc2c(=O)[nH]c(Cc3ccc(-c4cccnc4)cc3)nc21` (stereo not drawn) [Example 84], the pIC50 in assay [1] was 7.00; in assay [2], 7.70; in the assay with PDE V (c-GMP-specific) it was 6.00.

`COc1ccc(Cc2nc3c(ncn3C(CCCc3ccccc3)C(C)=O)c(=O)[nH]2)cc1OC` (stereo not drawn) [Example 100]: the values for the pIC50 (in assay [1]; in assay [2]; in the assay with PDE V (c-GMP-specific)) were 6.00, 8.40 and 6.00, respectively.

With `CC(O)C(CCCc1ccccc1)n1cnc2c(=O)[nH]c(Cc3ccc(NC(=O)C4CCN(C(=O)OCc5ccccc5)CC4)cc3)nc21` (stereo not drawn) [Example 121], the pIC50 in assay [1] was 6.30; in assay [2], 8.52; with PDE V (c-GMP-specific), 6.00.

Regarding `CC(CCCc1ccccc1)n1cnc2c(=O)[nH]c(Cc3ccc(-c4ccsc4)cc3)nc21` (stereo not drawn) [Example 83], the negative-log IC50 (pIC50) in assay [1] is 6.52; in assay [2], 7.70; in the assay with PDE V (c-GMP-specific) it was 6.30.

Take `CCOC(=O)N1CCC(C(=O)Nc2ccc(Cc3nc4c(ncn4C(CCCc4ccccc4)C(C)O)c(=O)[nH]3)cc2)CC1` (stereo not drawn) [Example 122]: the pIC50 in assay [1] was 6.30; in assay [2], 8.40; in the assay with PDE V (c-GMP-specific) it was 6.00.
